This is an account of results in patent US4283418A, “Guanidinobenzoic acid derivatives and process for their preparation” (Ono Pharmaceutical Co., Ltd., priority 1979, dated 1981).

Molecules are shown by their SMILES.

Test system in the first series: not listed separately
In words: Solubility in water. Format: physicochemical.
Conditions: not given
Compound `CNS(=O)(=O)c1ccc(OC(=O)c2ccc(NC(=N)N)cc2)cc1` [Compound No. 1] showed a solubility of over 20 mM.

In turn, `CN(C)S(=O)(=O)c1ccc(OC(=O)c2ccc(NC(=N)N)cc2)cc1` [Compound No. 2] returned a solubility of over 20 mM.

On to `N=C(N)Nc1ccc(C(=O)Oc2ccc(S(N)(=O)=O)cc2)cc1` [Compound No. 3], for which the solubility is over 20 mM.

In turn, `CN(C)C(=O)Cc1ccc(OC(=O)c2ccc(NC(=N)N)cc2)cc1` [Compound No. 4] yielded a solubility of over 20 mM.

`CNC(=O)Cc1ccc(OC(=O)c2ccc(NC(=N)N)cc2)cc1` [Compound No. 5]: the solubility was over 20 mM.

`CN(C)C(=O)c1ccc(OC(=O)c2ccc(NC(=N)N)cc2)cc1` [Compound No. 6] displayed a solubility of over 20 mM.

The target of another series is T1, trypsin (Bos taurus, UniProt P00760).
T1 sequence (P00760 24-246): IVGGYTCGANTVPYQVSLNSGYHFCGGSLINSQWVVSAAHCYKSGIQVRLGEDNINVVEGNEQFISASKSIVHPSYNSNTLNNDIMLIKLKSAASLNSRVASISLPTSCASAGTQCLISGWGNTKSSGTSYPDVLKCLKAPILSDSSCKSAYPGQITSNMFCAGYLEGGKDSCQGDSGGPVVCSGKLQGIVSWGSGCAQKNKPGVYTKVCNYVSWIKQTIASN
Put plainly: Inhibition of trypsin hydrolysis of p-tosylarginine methyl ester in vitro. Format: biochemical. To be noted: trypsin 0.5 μg, p-tosylarginine methyl ester 20 mM, Tris-HCl pH 8.5, 37° C., 30 minutes; read-out: 50% Inhibition Concentration Anti-trypsin. On the procedure:
(§1) The inhibitory activities of representative compounds of the general formula [I] against plasmin and trypsin in vitro were determined in a manner similar to the method described by M. Muramatsu et al J. Biochemistry, 58, 214 (1964) for trypsin and the method described by M. Muramatsu et al ibid, 57, 402 (1965) for plasmin. The procedures used are described more specifically below.
(1) Trypsin: 0.4 ml of trypsin (1.25 μg/ml), 0.5 ml of p-tosylarginine methyl ester (20 mM) in Tris-HCl buffer (pH 8.5) and 0.1 ml of a solution of each of the following compounds represented by the general formula [I] at various concentrations was reacted at a temperature of 37° C. for 30 minutes, and the concentration of each of the test compounds at which the activity of trypsin 0.5 μg to hydrolyze p-tosylarginine methyl ester was inhibited to an extent of 50% is shown in Table 1 below.
On to `CNS(=O)(=O)c1ccc(OC(=O)c2ccc(NC(=N)N)cc2)cc1` [Compound No. 1], for which the IC50 worked out at 3 nM.

Take `CN(C)S(=O)(=O)c1ccc(OC(=O)c2ccc(NC(=N)N)cc2)cc1` [Compound No. 2]: the IC50 came to 2 nM.

`N=C(N)Nc1ccc(C(=O)Oc2ccc(S(N)(=O)=O)cc2)cc1` [Compound No. 3]: the IC50 came to 2.2 nM.

For the compound `CN(C)C(=O)Cc1ccc(OC(=O)c2ccc(NC(=N)N)cc2)cc1` [Compound No. 4], the IC50 stood at 3.4 nM.

As for `CNC(=O)Cc1ccc(OC(=O)c2ccc(NC(=N)N)cc2)cc1` [Compound No. 5], the IC50 was determined as 9.1 nM.

Regarding `CN(C)C(=O)c1ccc(OC(=O)c2ccc(NC(=N)N)cc2)cc1` [Compound No. 6], the IC50 turned out to be 11 nM.

For another series, the target named is T2, plasmin (Homo sapiens, UniProt P00747).
T2 construct: from tissue
T2 sequence (P00747 97-580 limits assumed): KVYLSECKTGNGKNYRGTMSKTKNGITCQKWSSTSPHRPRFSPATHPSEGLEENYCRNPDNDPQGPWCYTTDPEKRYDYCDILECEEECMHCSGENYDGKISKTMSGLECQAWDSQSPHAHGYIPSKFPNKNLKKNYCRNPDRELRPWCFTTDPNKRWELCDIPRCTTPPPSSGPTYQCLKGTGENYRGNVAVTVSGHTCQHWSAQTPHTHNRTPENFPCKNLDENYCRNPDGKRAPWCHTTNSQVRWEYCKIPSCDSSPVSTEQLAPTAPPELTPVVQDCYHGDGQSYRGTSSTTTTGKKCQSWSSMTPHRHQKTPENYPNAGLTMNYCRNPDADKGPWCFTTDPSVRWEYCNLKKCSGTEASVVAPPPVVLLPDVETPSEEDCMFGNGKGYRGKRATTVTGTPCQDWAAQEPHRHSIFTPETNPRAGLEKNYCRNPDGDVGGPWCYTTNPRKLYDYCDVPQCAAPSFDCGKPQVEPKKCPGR
T2 sequence (P00747 581-810 limits assumed): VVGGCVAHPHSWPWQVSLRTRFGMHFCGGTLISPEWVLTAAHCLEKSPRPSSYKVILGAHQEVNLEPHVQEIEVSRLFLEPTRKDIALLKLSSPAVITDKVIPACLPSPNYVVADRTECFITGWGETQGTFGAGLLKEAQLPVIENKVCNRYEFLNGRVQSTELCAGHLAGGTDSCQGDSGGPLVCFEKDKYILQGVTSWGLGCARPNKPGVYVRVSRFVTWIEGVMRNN
In words: Inhibition of plasmin in vitro (human euglobulin, streptokinase, fibrinogen). Format: biochemical. The conditions noted are these: borate saline buffer pH 7.4, 37° C., 30 minutes, read-out: 50% Inhibition Concentration Anti-Plasmin. As for the experimental part: as §1
(2) Plasmin: 0.1 ml of human euglobulin (10 fold dilution), 0.1 ml of streptokinase (2000 unit/ml), 0.4 ml of fibrinogen (4% solution), 0.3 ml of a 0.1 M borate saline buffer solution (pH 7.4) and 0.1 ml of a solution of each of the following compounds represented by the general formula [I] at various concentrations was allowed to react at a temperature of 37° C. for 30 minutes.
On to `CNS(=O)(=O)c1ccc(OC(=O)c2ccc(NC(=N)N)cc2)cc1` [Compound No. 1], for which the IC50 is 3.1 nM.

On to `CN(C)S(=O)(=O)c1ccc(OC(=O)c2ccc(NC(=N)N)cc2)cc1` [Compound No. 2], for which the IC50 is 6.4 nM.

In the case of `N=C(N)Nc1ccc(C(=O)Oc2ccc(S(N)(=O)=O)cc2)cc1` [Compound No. 3], the IC50 worked out at 4.8 nM.

Turning to `CN(C)C(=O)Cc1ccc(OC(=O)c2ccc(NC(=N)N)cc2)cc1` [Compound No. 4], the IC50 is 270 nM.

For the compound `CNC(=O)Cc1ccc(OC(=O)c2ccc(NC(=N)N)cc2)cc1` [Compound No. 5], the IC50 was 410 nM.

For the compound `CN(C)C(=O)c1ccc(OC(=O)c2ccc(NC(=N)N)cc2)cc1` [Compound No. 6], the IC50 was 95 nM.

As usually defined, the solubility is how much of the substance goes into solution per volume.
